Measured values as given in patent EP0638566B1, “5-Aminoflavone derivatives, their preparation and their use as antibacterial, anti-estrogenic and/or antitumor agent” (KYOWA HAKKO KOGYO CO., LTD., priority 1993, dated 1995).
≈ marks a conversion by molar mass, not a printed value. Counter-ions that a name gives are not always drawn.

These compounds were tested on estrogen-dependent human mammary cancer MCF-7 (assay: Antitumor effects against MCF-7 tumor transplanted in nude mice). Settings: Mus musculus, MCF7; dose 25 mg/kg oral, 5 days per week for two weeks; judgement day 14; read-out: T/C.
Assay type: in vivo, female BALB/c-nu/nu mice
Excerpt: Antitumor effects against estrogen-dependent human mammary cancer MCF-7
The tumor fragment (2mm x 2mm x 2mm) of human hormone dependent mammary cancer MCF-7 was transplanted subcutaneously in the flank of female BALB/c-nu/nu mice (Nihon Crea), 7 to 9 weeks age. […] 3 to 4 Weeks after transplantation, mice of the tumor volume of 25 to 200 mm^3 were selected, and the test compounds were orally administered repeatedly to the groups (5 animals per group) for 5 days per a week, for total two weeks. In addition, estradiol propionate was administered again on the date of initial administration of the test compounds. Length and width of the tumor were determined every day, and the tumor volumes were calculated by means of ellipsoid approximation according to the following equation: […] [formula] The tumor volume at initial administration (Vo) and on the day of judgement (V) was calculated, and the tumor growth rate (V/Vo) was calculated. T/C value was obtained as the ratio of V/Vo value of treated group relative to that of control group.
In the case of `CC(=O)OCc1c(F)c(N)c2c(=O)cc(-c3ccc(N)c(F)c3)oc2c1F` [Compound 44, 7-Acetoxymethyl-5-amino-2-(4-amino-3-fluorophenyl)-6,8-difluoro-4H-1-benzopyran-4-one], the response vs control in vivo at 25 mg/kg is reported as 6.1%.

Same assay, conditions: Mus musculus, MCF7; dose 50 mg/kg oral, 5 days per week for two weeks; judgement day 14; read-out: T/C
Work on `Nc1ccc(-c2cc(=O)c3c(N)c(F)c(CO)c(F)c3o2)cc1F` [Compound 39, 5-Amino-2-(4-amino-3-fluorophenyl)-6,8-difluoro-7-hydroxymethyl-4H-1-benzopyran-4-one] yielded a response vs control in vivo at 50 mg/kg of 1.6%.

Same assay, conditions: Mus musculus, MCF7; dose 50 mg/kg oral, 5 days per week for two weeks; judgement day 21; read-out: T/C
With `Nc1ccc(-c2cc(=O)c3c(N)c(F)c(Br)c(F)c3o2)cc1F` [Compound 6, 5-Amino-2-(4-amino-3-fluorophenyl)-7-bromo-6,8-difluoro-4H-1-benzopyran-4-one] the response vs control in vivo at 50 mg/kg was 54%.

Each compound was assayed on Human mammary cancer MCF-7 cell (assay: Human mammary cancer MCF-7 cell growth inhibition test (neutral red)). Settings: MCF7, 72 h.
Assay type: cell-based
Description: Human mammary cancer MCF-7 cell growth inhibition test
Each 0.1 ml of MCF-7 cells which had been prepared to 5 x 10^4/ml using a medium (referred to as Medium B hereinafter) prepared by adding 10% bovine fetal serum, 10^-8M estradiol (manufactured by Sigma), 100 units/ml penicillin and 100 µg/ml streptomycin to RPMI1640 medium was distributed in each well of 96 well-microtiter plate. […] Supernatant was removed, each 0.1 ml of Medium B containing 0.02% neutral red was added to the residue, the mixture was cultured at 37 °C for 1 hour in a CO2 gas incubator and the cells were stained by neutral red dye. Supernatant was removed and the residue was washed once with a physiological saline. Then, the dye was extracted with 0.001N hydrochloric acid/30% ethanol and the absorbance at 550 nm was determined with a microplatereader.
`COc1c(F)c(N)c2c(=O)cc(-c3ccc(N)c(F)c3)oc2c1F` [Compound 8, 5-Amino-2-(4-amino-3-fluorophenyl)-6,8-difluoro-7-methoxy-4H-1-benzopyran-4-one] gave an IC50 of 0.1 µM. `CSc1c(F)c(N)c2c(=O)cc(-c3ccc(N)c(F)c3)oc2c1F` [Compound 10, 5-Amino-2-(4-amino-3-fluorophenyl)-6,8-difluoro-7-methylthio-4H-1-benzopyran-4-one] gave an IC50 of 0.19 µM. In the case of `Nc1ccc(-c2cc(=O)c3c(N)c(F)c(CO)c(F)c3o2)cc1F` [Compound 39, 5-Amino-2-(4-amino-3-fluorophenyl)-6,8-difluoro-7-hydroxymethyl-4H-1-benzopyran-4-one], the IC50 is reported as 0.062 µM. `CN(C)Cc1c(F)c(N)c2c(=O)cc(-c3ccc(N)c(F)c3)oc2c1F` [Compound 42, Hydrochloride of 5-amino-2-(4-amino-3-fluorophenyl)-7-dimethylaminomethyl-6,8-difluoro-4H-1-benzopyran-4-one] was tested, and the IC50 was 0.072 µM. With `CC(=O)OCc1c(F)c(N)c2c(=O)cc(-c3ccc(N)c(F)c3)oc2c1F` [Compound 44, 7-Acetoxymethyl-5-amino-2-(4-amino-3-fluorophenyl)-6,8-difluoro-4H-1-benzopyran-4-one] the IC50 was 0.026 µM.

Same assay, conditions: MCF7, MCF-7 cells, medium with 10^-8M estradiol, 72 hours, neutral red, absorbance at 550 nm, read-out: IC50
`CCc1c(F)c(N)c2c(=O)cc(-c3ccc(N)c(F)c3)oc2c1F` [Compound 2, 5-Amino-2-(4-amino-3-fluorophenyl)-7-ethyl-6,8-difluoro-4H-1-benzopyran-4-one] showed an IC50 of 0.13 µM. Compound `Nc1ccc(-c2cc(=O)c3c(N)c(F)c(Cl)c(F)c3o2)cc1F` [Compound 5, 5-Amino-2-(4-amino-3-fluorophenyl)-7-chloro-6,8-difluoro-4H-1-benzopyran-4-one] has an IC50 of 0.21 µM. For `Nc1ccc(-c2cc(=O)c3c(N)c(F)c(Br)c(F)c3o2)cc1F` [Compound 6, 5-Amino-2-(4-amino-3-fluorophenyl)-7-bromo-6,8-difluoro-4H-1-benzopyran-4-one], the IC50 was 0.16 µM. For `C[S+]([O-])c1c(F)c(N)c2c(=O)cc(-c3ccc(N)c(F)c3)oc2c1F` (stereo not shown) [Compound 11, 5-Amino-2-(4-amino-3-fluorophenyl)-6,8-difluoro-7-methylsulfinyl-4H-1-benzopyran-4-one], the IC50 was 2.5 µM. `CCOC(=O)c1c(F)c(N)c2c(=O)cc(-c3ccc(N)c(F)c3)oc2c1F` [Compound 13, 5-Amino-2-(4-amino-3-fluorophenyl)-7-ethoxycarbonyl-6,8-difluoro-4H-1-benzopyran-4-one] showed an IC50 of 1.4 µM. In the case of `Cc1c(F)c(N)c2c(=O)cc(-c3ccc(N)c(Cl)c3)oc2c1F` [Compound 24, 5-Amino-2-(4-amino-3-chlorophenyl)-6,8-difluoro-7-methyl-4H-1-benzopyran-4-one], the IC50 is reported as 0.092 µM. In the case of `CCc1cc(-c2cc(=O)c3c(N)c(F)c(C)c(F)c3o2)ccc1N` [Compound 26, 5-Amino-2-(4-amino-3-ethylphenyl)-6,8-difluoro-7-methyl-4H-1-benzopyran-4-one], the IC50 is reported as 0.065 µM. `Nc1ccc(-c2cc(=O)c3c(N)c(F)c(F)c(F)c3o2)cc1F` [Compound 34, 5-Amino-2-(4-amino-3-fluorophenyl)-6,7,8-trifluoro-4H-1-benzopyran-4-one] showed an IC50 of 0.22 µM. In the case of `COCc1c(F)c(N)c2c(=O)cc(-c3ccc(N)c(F)c3)oc2c1F` [Compound 43, 5-Amino-2-(4-amino-3-fluorophenyl)-6,8-difluoro-7-methoxymethyl-4H-1-benzopyran-4-one], the IC50 is reported as 0.046 µM.

Each compound was assayed on Bacillus subtilis #10107 (assay: Antibacterial activity, agar dilution method). Settings: Minimum Inhibition Concentration, agar dilution method at pH 7.0, read-out: MIC.
Assay type: cell-based
Description: Antibacterial activity of compound (I) against Bacillus subtilis #10107 [Minimum Inhibition Concentration(MIC; µg/ml)] is shown in Table 6. Minimum Inhibition Concentration was determined by agar dilution method at pH 7.0.
In the case of `CN(C)CCCNc1c(F)c(N)c2c(=O)cc(-c3ccc(N)c(F)c3)oc2c1F` [Compound 18, 5-Amino-2-(4-amino-3-fluorophenyl)-7-[3-(dimethylamino)propylamino]-6,8-difluoro-4H-1-benzopyran-4-one], the MIC is reported as 52.1 µg/mL (≈ 128 µM). With `CC(=O)c1c(F)c(N)c2c(=O)cc(-c3ccc(N)c(F)c3)oc2c1F` [Compound 22, 7-Acetyl-5-amino-2-(4-amino-3-fluorophenyl)-6,8-difluoro-4H-1-benzopyran-4-one] the MIC was 13 µg/mL (≈ 37.3 µM).
